The MIC is the lowest concentration that inhibits growth of the organism. For orientation: IC50 means the concentration needed to halve the response being measured. Low readings indicate higher potency, high ones lower potency.

We go through 3 compounds from patent US20060002888A1, “Polyionenes for treating infections associated with cystic fibrosis” (Genzyme Corporation, priority 2002, published 2006).

Values after ≈ are worked out from the molar mass of the structure shown. Like-named read-outs stand apart in the source and are kept apart here.

For one assay, the system named is B. cepacia. Put plainly: Minimum inhibitory concentration in vitro (Example 26). The conditions noted are these: Burkholderia cepacia. The class given is cell-based. The procedure: (§1) Poly(trimethylene dipyridine-alt-5-oxanonane) having a molecular weight of 0.5 to 1 kDa was tested in A-549 lung epithelial cells to determine its IC50 value in comparison with tobramycin, a conventional antibiotic. In addition, the minimum inhibitory concentrations for the two compounds were determined in vitro for a number of bacterial strains and species. The results are as shown below, where all concentrations are expressed as μg/mL: […]

Assay [1] has as its system P. aeruginosa. The description is as above. It counts as cell-based. The settings on record: Pseudomonas aeruginosa. As to the method:
as §1

The next assay deals with S. maltophilia. Described as above. It counts as cell-based. The settings on record: Stenotrophomonas maltophilia. The procedure:
as §1

A further assay has as its system S. aureus. The description is as above. It counts as cell-based. The conditions noted are these: Staphylococcus aureus. The procedure: as §1
Assay [2] has as its system A-549 lung epithelial cells. Put plainly: IC50 in A-549 lung epithelial cells. The class given is cell-based. The settings on record: Homo sapiens, A549. As to the method: as §1
The next assay has as its system MRSA. The settings on record: over 15 passages, published studies; cited from earlier work.
The subject of assay [3] is P. aeruginosa. The settings on record: within 11 passages, published studies; cited from earlier work.

Take `NC[C@H]1O[C@H](O[C@H]2[C@H](O)[C@@H](O[C@H]3O[C@H](CO)[C@@H](O)[C@H](N)[C@H]3O)[C@H](N)C[C@@H]2N)[C@H](N)C[C@@H]1O` [Tobramycin]: the MIC against B. cepacia was more than 50 µg/mL; with P. aeruginosa [1] (strain G38, read-out: MIC P. aeruginosa G38) it was 0.39 µg/mL (≈ 0.834 µM); with P. aeruginosa [1] (strain PA01, read-out: MIC P. aeruginosa PA01), 0.39 µg/mL (≈ 0.834 µM); against S. maltophilia it was 25 µg/mL (≈ 53.5 µM); against S. aureus it was 0.195 µg/mL (≈ 0.417 µM). This compound also had an IC50 in assay [2] of 5000 µg/mL (≈ 10700 µM).

With `CCn1cc(C(=O)O)c(=O)c2cc(F)c(N3CCNCC3)cc21` [norfloxacin], the “Rise of the MIC” value is reported as 85 fold with MRSA and 10 fold in the assay with P. aeruginosa [3].

Turning to gentamicin, the “Rise of the MIC” value with P. aeruginosa [3] is listed as 190 fold.
